Measured values reported in patent US8288424B2, “Substituted tetrahydroimidazopyridine compounds and the use thereof in the treatment of pain and other conditions” (Gruenenthal GmbH, priority 2008, dated 2012).

The molecules below were run against T1, KCNQ2/3 channels (Homo sapiens, UniProt O43525+O43526) (assay: Fluorescence assay using a voltage-sensitive dye). Settings: 10 μmol test substance; CHO-K1 cells expressing KCNQ2/3 channels; agonistic activity; read-out: % Stimulation [10 μmol] Average.
T1 construct: expressed in transfected cells; host or cells: CHO-K1
Type: cell-based
How it was run: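 CHO-K1 cells expressing KCNQ2/3 loaded with membrane-potential dye in ES buffer (1 mM KCl, pH 7.4), compound 30 min at room temperature, then KCl added (final 92 mM). Fluorescence (ex 525/em 560 nm) read before (F1) and at peak after (F2) KCl; agonism from F2/F1 change versus buffer controls, EC50 calculated.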

SMILES | activation at 10 µM [%]
Cc1cc(C2CCc3nc(C(=O)NCC4CCCCC4)cn3C2)ccc1F (centres unmarked) [Compound 68, N-(Cyclohexylmethyl)-6-(4-fluoro-3-methylphenyl)-5,6,7,8-tetrahydroimidazo[1,2-a]pyridine-2-carboxamide] | 25.1
COc1ccc(C2CCc3nc(C(=O)N4CCN(c5cccc(C(F)(F)F)c5)CC4)cn3C2)cc1 (centres unmarked) [Compound 69, (6-(4-Methoxyphenyl)-5,6,7,8-tetrahydroimidazo[1,2-a]pyridin-2-yl)(4-(3-(trifluoromethyl)phenyl)piperazin-1-yl)methanone] | 30.1
COc1cccc(C2CCc3nc(C(=O)N4CCN(c5cccc(C(F)(F)F)c5)CC4)cn3C2)c1 (centres unmarked) [Compound 71, (6-(3-Methoxyphenyl)-5,6,7,8-tetrahydroimidazo[1,2-a]pyridin-2-yl)(4-(3-(trifluoromethyl)phenyl)piperazin-1-yl)methanone] | 115
Cc1cc(C2CCc3nc(C(=O)NC(C)CCc4ccccc4)cn3C2)ccc1F (centres unmarked) [Compound 72, 6-(4-Fluoro-3-methylphenyl)-N-(4-phenylbutan-2-yl)-5,6,7,8-tetrahydroimidazo[1,2-a]pyridine-2-carboxamide] | 103
Cc1ccc(C2CCc3nc(C(=O)N4CCN(c5cccc(C(F)(F)F)c5)CC4)cn3C2)cc1 (centres unmarked) [Compound 74, (6-p-Tolyl-5,6,7,8-tetrahydroimidazo[1,2-a]pyridin-2-yl)(4-(3-(trifluoromethyl)phenyl)piperazin-1-yl)methanone] | 51.9
COc1ccc(C2CCc3nc(C(=O)N4CCC(Cc5ccccc5)CC4)cn3C2)cc1 (centres unmarked) [Compound 76, (4-Benzylpiperidin-1-yl)(6-(4-methoxyphenyl)-5,6,7,8-tetrahydroimidazo[1,2-a]pyridin-2-yl)methanone] | 65.1
Cc1cc(C2CCc3nc(C(=O)N4CCN(Cc5ccccc5)CC4)cn3C2)ccc1F (centres unmarked) [Compound 80, (4-Benzylpiperazin-1-yl)(6-(4-fluoro-3-methylphenyl)-5,6,7,8-tetrahydroimidazo[1,2-a]pyridin-2-yl)methanone] | 33.1
O=C(c1cn2c(n1)CCC(c1ccc(OCc3ccccc3)cc1)C2)N1CCN(c2cccc(C(F)(F)F)c2)CC1 (centres unmarked) [Compound 82, (6-(4-(Benzyloxy)phenyl)-5,6,7,8-tetrahydroimidazo[1,2-a]pyridin-2-yl)(4-(3-(trifluoromethyl)phenyl)piperazin-1-yl)methanone] | 32.7
Cc1cc(C2CCc3nc(C(=O)NCCC4CCCCC4)cn3C2)ccc1F (centres unmarked) [Compound 88, N-(2-Cyclohexylethyl)-6-(4-fluoro-3-methylphenyl)-5,6,7,8-tetrahydroimidazo[1,2-a]pyridine-2-carboxamide] | 47.9

Next, values leading:

activation at 10 µM [%] | SMILES
123 | Cc1cccc(C2CCc3nc(C(=O)N4CCC(Cc5ccccc5)CC4)cn3C2)c1 (centres unmarked) [Compound 70, (4-Benzylpiperidin-1-yl)(6-m-tolyl-5,6,7,8-tetrahydroimidazo[1,2-a]pyridin-2-yl)methanone]
88.8 | Cc1ccc(C2CCc3nc(C(=O)N4CCC(Cc5ccccc5)CC4)cn3C2)cc1 (centres unmarked) [Compound 73]
127 | Cc1cccc(C2CCc3nc(C(=O)N4CCN(c5cccc(C(F)(F)F)c5)CC4)cn3C2)c1 (centres unmarked) [Compound 75, (6-m-Tolyl-5,6,7,8-tetrahydroimidazo[1,2-a]pyridin-2-yl)(4-(3-(trifluoromethyl)phenyl)piperazin-1-yl)methanone]
29.7 | Cc1cc(C)cc(C(C)NC(=O)c2cn3c(n2)CCC(c2ccc(F)c(C)c2)C3)c1 (centres unmarked) [Compound 78, N-(1-(3,5-Dimethylphenyl)ethyl)-6-(4-fluoro-3-methylphenyl)-5,6,7,8-tetrahydroimidazo[1,2-a]pyridine-2-carboxamide]
125 | O=C(c1cn2c(n1)CCC(c1ccc(F)c(F)c1)C2)N1CCN(c2cccc(C(F)(F)F)c2)CC1 (centres unmarked) [Compound 79, (6-(3,4-Difluorophenyl)-5,6,7,8-tetrahydroimidazo[1,2-a]pyridin-2-yl)(4-(3-(trifluoromethyl)phenyl)piperazin-1-yl)methanone]
37.9 | Cc1cc(C2CCc3nc(C(=O)N4CC5(C)CC4CC(C)(C)C5)cn3C2)ccc1F (centres unmarked) [Compound 84, (6-(4-Fluoro-3-methylphenyl)-5,6,7,8-tetrahydroimidazo[1,2-a]pyridin-2-yl)(1,3,3-trimethyl-6-azabicyclo[3.2.1]octan-6-yl)methanone]
120 | Cc1cc(C2CCc3nc(C(=O)N4CCC(c5cccc(C(F)(F)F)c5)CC4)cn3C2)ccc1F (centres unmarked) [Compound 85, (6-(4-Fluoro-3-methylphenyl)-5,6,7,8-tetrahydroimidazo[1,2-a]pyridin-2-yl)(4-(3-(trifluoromethyl)phenyl)piperidin-1-yl)methanone]
48.4 | Cc1cc(C2CCc3nc(C(=O)N(C)C(C)CCc4cccc(C(F)(F)F)c4)cn3C2)ccc1F (centres unmarked) [Compound 87, 6-(4-Fluoro-3-methylphenyl)-N-methyl-N-(4-(3-(trifluoromethyl)phenyl)butan-2-yl)-5,6,7,8-tetrahydroimidazo[1,2-a]pyridine-2-carboxamide]

Same assay, conditions: CHO-K1 cells expressing KCNQ2/3 channels; agonistic activity

SMILES | EC50 [µM]
Cc1cc(C)cc(C2CCc3nc(C(=O)N4CCN(c5cccc(C(F)(F)F)c5)CC4)cn3C2)c1 (centres unmarked) [Compound 77, (6-(3,5-Dimethylphenyl)-5,6,7,8-tetrahydroimidazo[1,2-a]pyridin-2-yl)(4-(3-(trifluoromethyl)phenyl)piperazin-1-yl)methanone] | 0.08
Cc1cc(C2CCc3nc(C(=O)N4CCN(c5cccc(F)c5)CC4)cn3C2)ccc1F (centres unmarked) [Compound 83, (6-(4-Fluoro-3-methylphenyl)-5,6,7,8-tetrahydroimidazo[1,2-a]pyridin-2-yl)(4-(3-fluorophenyl)piperazin-1-yl)methanone] | 6.5
Cc1cc(C2CCc3nc(C(=O)NC(C)CCc4cccc(C(F)(F)F)c4)cn3C2)ccc1F (centres unmarked) [Compound 86, 6-(4-Fluoro-3-methylphenyl)-N-(4-(3-(trifluoromethyl)phenyl)butan-2-yl)-5,6,7,8-tetrahydroimidazo[1,2-a]pyridine-2-carboxamide] | 1.2
